In patent US8318184B2, “MGLU2 agonists” (Eli Lilly and Company, priority 2009, dated 2012):

How the values were obtained:
Sprague-Dawley rats [1] = assay: Reversal of Phencyclidine (PCP)-Induced Hyperlocomotor Activity in Rats; type: in vivo; conditions: Rattus norvegicus, p.o., overnight fasted, 4 hours prior to 5 mg/kg PCP
Excerpt: Administration of NMDA receptor antagonists, such as ketamine or phencyclidine (PCP), produces psychotomimetic-like effects in humans that are similar to those symptoms observed in patients with schizophrenia.
Motor activity is monitored by placing individual male, Sprague-Dawley (Harlan, Indianapolis, Ind.) rats in transparent, plastic shoe-box cages of the dimensions 45×25×20 cm, with 1 cm depth of wood chips as bedding, and a metal grill on top of the cage. Motor monitors (Kinder Scientific) consist of a rectangular rack of 12 photobeams arranged in an 8×4 formation, (or a high density grouping of 22 in a 15×7 pattern) at a height of 5 cm, with a second rack (for measuring rearing behaviors) at a height of 15 cm. The shoe box cage is placed inside of these racks, with the racks on a 3 foot high tabletop in an isolated room. A compound of the present invention is dosed (intraperitoneal route (i.p.), non-prodrug) within a range of 0.3-10 mg/kg, 30 minutes prior to a 5 mg/kg challenge dose of phencyclidine (PCP). A compound of the present invention is dosed (oral route, prodrug) within a range of 0.3-30 mg/kg, in overnight fasted rats, 4 hours prior to a 5 mg/kg challenge dose of PCP. On the test day, rats are placed in the test cage and allowed to acclimate for 30 minutes prior to PCP challenge; rats are monitored for an additional 60 minutes following PCP administration.
Data analysis and ED50 calculations are conducted using GraphPad Prism (San Diego, Calif. USA). Power analyses have determined that 8-10 rats per group are needed to have appropriate statistical power for detecting treatment differences (power=0.8). A one-way analysis of variance (ANOVA) with a post-hoc Dunnett's multiple comparison test is conducted on the total 60 minute locomotor activity. ED50 calculations are performed using non-linear regression curve fitting on percent reversal transformed data for each dose.

[2] = 1 h, 10 µM, pH 7.4
Method: Frozen human duodenum intestinal homogenates (1:2 tissue:buffer ratio using 100 mM Tris Phosphate buffer, pH 7.4) are obtained from Celsius In Vitro Technologies (Baltimore, Md.) that were both phenylmethylsulphonylfluoride (PMSF) and EDTA free.
Each lot of human duodenum is obtained from a single donor and the intestine is scraped and the sections are frozen separate. All original tissue collections are performed at 4° C. and immediately frozen at −70° C. Human intestinal homogenates are thawed and diluted to a final protein concentration of 0.5 mg/mL in 100 mM PBS buffer, pH 7.4 immediately prior to the incubations.
Incubations are conducted in 96-well plates and all prodrug compounds are run in duplicate on each day. Stock prodrug compound solutions are prepared in water at a concentration of 1 mM. A 200 μL aliquot of 0.5 mg/mL intestinal homogenate and 196 μL of 100 mM PBS buffer are placed in a 96-well plate in a 37° C. water bath. Using a 96-well pipettor, 4 μL of the 1 mM prodrug compound solution is transferred into the homogenate. Immediately after addition of the prodrug compound (time zero) and after 1 hour incubation, 50 μL samples of the incubation mixture are removed using an automated disposable simultaneous 96 well pipettor and added directly to 200 μL of methanol quench solution containing 100 ng/mL of Internal Standard. The samples are then centrifuged at 3500 rpm for 5 minutes at 10° C. The supernatant (200 μL) is transferred to a final 96 well PCR plate and sealed for analysis by LC/MS/MS.
Concentrations of hydrolyzed compounds of the present invention in the incubation mixtures are determined using LC/MS/MS detection on a Sciex API 4000 quadrapole mass spectrometer with Analyst version 1.4.2, TurboIonSpray, positive ionization, and Selected Reaction Monitoring (SRM). A Waters Atlantis® T3 (20×2.1 mm, 5 μM) HPLC column is used at ambient temperature with a flow rate of 1.0 mL/min and a mobile phase gradient from 0.1% mobile phase A to 99% mobile phase A. Mobile phase A is 1000:5 water:heptafluorobuteric acid and mobile phase B is 1:1 methanol:glacial acetic acid.
Concentrations of hydrolyzed compounds of the present invention in the intestinal incubation mixtures are determined from standard curves prepared by replicate two-fold dilution starting at 10 μM in 100 mM PBS pH 7.4 and subsequently quenched with methanol-internal standard solution identical to the samples. Averages and standard deviations are calculated using Microsoft® Office Excel® 2007. Amount of hydrolysis is determined as a molar percentage of compound formed relative to prodrug compound concentration added. […] Final values are then normalized relative to the formation of Internal Compound Drug A.

hPepT1 = target: T1, hPepT1 (Homo sapiens, UniProt P46059); assay: In Vitro PepT1 GlySar Inhibition Screen and IC50 Determination; type: cell-based; conditions: for inhibition at 5000 µM: 5 mM, pH 6.0, PepT1 transiently transfected HeLa cells, read-out: hPepT1 [3H]Gly-Sar uptake inhibition at 5 mM
T1 construct: expressed in transfected cells; host or cells: HeLa cells (ATCC), transient transfection with FuGene6
T1 sequence (P46059 1-708): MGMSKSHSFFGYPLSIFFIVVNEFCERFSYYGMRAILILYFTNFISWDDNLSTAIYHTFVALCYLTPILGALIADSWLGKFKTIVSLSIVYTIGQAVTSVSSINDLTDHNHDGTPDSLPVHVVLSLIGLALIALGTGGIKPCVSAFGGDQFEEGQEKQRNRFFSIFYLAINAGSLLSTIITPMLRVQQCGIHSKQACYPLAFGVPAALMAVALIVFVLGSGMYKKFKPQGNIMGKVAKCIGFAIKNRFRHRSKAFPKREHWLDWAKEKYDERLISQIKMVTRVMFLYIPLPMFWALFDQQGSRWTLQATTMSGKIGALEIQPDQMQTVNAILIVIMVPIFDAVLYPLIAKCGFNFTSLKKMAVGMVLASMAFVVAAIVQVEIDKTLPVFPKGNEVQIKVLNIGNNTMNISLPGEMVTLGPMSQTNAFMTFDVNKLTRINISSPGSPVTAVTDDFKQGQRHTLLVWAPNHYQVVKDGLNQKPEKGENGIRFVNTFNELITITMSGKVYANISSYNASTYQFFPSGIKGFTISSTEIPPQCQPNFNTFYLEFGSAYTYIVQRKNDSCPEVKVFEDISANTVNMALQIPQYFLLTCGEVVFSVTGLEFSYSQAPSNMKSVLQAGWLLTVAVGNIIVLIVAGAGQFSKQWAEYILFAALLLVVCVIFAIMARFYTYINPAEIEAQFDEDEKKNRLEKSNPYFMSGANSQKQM
Method: PepT1 assays are established to examine the ability of the amino acid prodrug compounds to interact with the intestinal absorption transporter PepT1.
HeLa cells, […], (American Type Culture Collection) are grown in Hyclone Medium (Invitrogen, Cat# SH30243) containing 10% fetal bovine serum (FBS), 0.1 mM non essential amino acids (NEAA), and 100 units/mL penicillin with 100 μg/mL streptomycin at 37° C. in a 5% CO2 humidified atmosphere. The cell line is used for up to 40 passages and then discarded. Frozen cells in 1 ml vials are thawed in water bath for 1-2 minutes and added to 5 mL of cell medium at 37° C. Each of the T-flasks is provided with 8.5 mL of the fresh medium and 1.5 mL of the cell stock. Cells are passaged twice during a week. This is achieved by rinsing the flasks with 10 mL of phosphate buffered saline-ethylene diaminetetra acetic acid (PBS-EDTA), adding 2 mL of trypsin for 2-5 minutes, to detach the cells, and adding 8 mL of fresh medium to inhibit further activity of trypsin. Each new flask receives a combination of 8.5 mL of fresh medium and 1.5 mL of cell stock, in order to obtain 1:6 cell dilution. Cells are incubated at 37° C., until ready for the uptake study.
Cells that are 70-80% confluent in the T-flasks are plated 1 day prior to the transfection procedure. The flask with the cell stock is treated with PBS-EDTA and trypsin to detach the cells, and transfection medium is used from this point. Transfection medium consists of Dulbecco's Modified Eagle Medium (DMEM)+NEAA. To each well, 0.5 mL of the cell mixture is added (1.3×10^5 is the desired cell concentration) and the cells are incubated at 37° C. overnight. Twenty four hours before the assay, cells are transfected with PEPT1. Transfection mixture is prepared by mixing 600 μL of serum free transfection medium, 18 μL of FuGene6 (Roche Diagnostics), and 11 μg of the PepT1 DNA. The transfection reagent-DNA complex is incubated for 20 minutes and 24 μL of the reagent-DNA complex is added to each well.
J. Pharm. Exper Ther. 310:437-445). […] Uptake media consists of 140 mM NaCl, 5.4 mM KCl, 1.8 mM CaCl2, 0.8 mM MgSO4, 5 mM Glucose, 25 mM tris(hydroxymethyl)aminomethane buffer (TRIS). The solution is then brought to pH 6.0 using 2-(N-morpholino)ethanesulfonic acid. The incubation volume is 500 μL and is performed at room temperature for 3 minutes. To stop the uptake at the conclusion of the incubation time, the uptake media is aspirated off of the cell monolayer and 500 μL of ice cold PBS added to the well. The cells are washed 3 times with 500 μL of room temperature PBS without Ca^+2 and Mg^+2. The cells are then lysed with 300 μL of 1% Triton X100 H2O solution. […] A no inhibitor control is established and the percent inhibition of each prodrug is calculated with respect to this control.
The incubation and sampling procedures are exactly the same as the PepT1 screen described above. […]

Sprague-Dawley rats [3] = assay: Forced Swim Test in rats; type: in vivo, rat; conditions: 30 mg/kg
Method: (§1) In this assay, mechanisms with purported antidepressant-like activity decrease immobility in a brief inescapable forced swim episode.
The forced-swim test is conducted with both mice (male, NIH-Swiss mice, 20-25 g, Harlan Sprague-Dawley, Indianapolis, Ind.) and rats (male, Sprague-Dawley rats, 250-350 g, Harlan Sprague-Dawley, Indianapolis, Ind.). Mice are placed in clear plastic cylinders (diameter 10 cm; height: 25 cm) filled to 6 cm with 22-25° C. water for six min. The duration of immobility is recorded during the last 4 min of a six-minute trial. Rats are treated similarly, albeit in clear plastic cylinders of larger dimensions (diameter: 18 cm; height: 40 cm) filled with water (22-25° C.) to a depth of 16 cm for 15 min. Additionally, mice receive a single forced swim exposure; rats receive two, 5-min sessions separated by 24 hours (data is recorded only on Day 2). The compound of Example 1 is tested in mice using intraperitoneal dosing (1, 3, or 10 mg/kg), 60 min prior to testing. […] Example 2 is administered 5 min following the first forced swim exposure and 120 min prior to the test session on Day 2. Imipramine is used as a positive control for these studies. Compounds are formulated in a water vehicle, with minimal NaOH being added to Example 1 and Example 2. Compounds are in a clear solution. The amount of time spent immobile (defined as movements only necessary to keep the subject's head above water) is the dependent measure and recorded by an observer blinded to the drug treatment of the subjects. Data are analyzed by post-hoc Dunnett's test with alpha level set at 0.05. The mouse version of the forced swim test is most commonly used. An ED60 value (60% of the amount of immobility relative to vehicle controls) is calculated to estimate potency of the test compounds.

NIH-Swiss mice = assay: Forced Swim Test in mice; type: in vivo, mouse; conditions: positive control over multiple studies
Method: as §1
The forced-swim test is conducted with both mice (male, NIH-Swiss mice, 20-25 g, Harlan Sprague-Dawley, Indianapolis, Ind.) and rats (male, Sprague-Dawley rats, 250-350 g, Harlan Sprague-Dawley, Indianapolis, Ind.). Mice are placed in clear plastic cylinders (diameter 10 cm; height: 25 cm) filled to 6 cm with 22-25° C. water for six min. The duration of immobility is recorded during the last 4 min of a six-minute trial. Rats are treated similarly, albeit in clear plastic cylinders of larger dimensions (diameter: 18 cm; height: 40 cm) filled with water (22-25° C.) to a depth of 16 cm for 15 min. Additionally, mice receive a single forced swim exposure; rats receive two, 5-min sessions separated by 24 hours (data is recorded only on Day 2). […] Imipramine is used as a positive control for these studies. […] Compounds are in a clear solution. The amount of time spent immobile (defined as movements only necessary to keep the subject's head above water) is the dependent measure and recorded by an observer blinded to the drug treatment of the subjects. Data are analyzed by post-hoc Dunnett's test with alpha level set at 0.05. The mouse version of the forced swim test is most commonly used.

Structure (SMILES) | human intestinal hydrolysis relative to Internal Prodrug Compound A [2] [%] | inhibition at 5000 µM (hPepT1) [%] | other results
CC(C)C[C@H](N)C(=O)N[C@@]1(C(=O)O)C[C@@H](Sc2nnc[nH]2)[C@H]2[C@H](C(=O)O)[C@H]21.Cl [Example 4, (1R,2S,4R,5R,6R)-2-[[(2S)-2-Amino-4-methyl-pentanoyl]amino]-4-(4H-1,2,4-triazol-3-ylsulfanyl)bicyclo[3.1.0]hexane-2,6-dicarboxylic acid hydrochloride] | 45 | 32 | 
N[C@@]1(C(=O)OCc2ccccc2)C[C@@H](Sc2nnc[nH]2)[C@H]2[C@H](C(=O)OCc3ccccc3)[C@H]21 [Example 6, Dibenzyl (1R,2S,4R,5R,6R)-2-amino-4-(4H-1,2,4-triazol-3-ylsulfanyl)bicyclo[3.1.0]hexane-2,6-dicarboxylate] | 2 |  | 
CN(C)CCCN1c2ccccc2CCc2ccccc21 [imipramine, reference compound] |  |  | immobility as % of vehicle controls (Sprague-Dawley rats [3]): 70%; ED60 (NIH-Swiss mice): 8.6 ± 1.2 mg/kg; effect, % of vehicle immobility levels (NIH-Swiss mice): 39±1.2%

Continued, in another order:

human intestinal hydrolysis relative to Internal Prodrug Compound A [2] [%] | inhibition at 5000 µM (hPepT1) [%] | Structure (SMILES) | other results
53 | 51 | CSCC[C@H](N)C(=O)N[C@@]1(C(=O)O)C[C@@H](Sc2nnc[nH]2)[C@H]2[C@H](C(=O)O)[C@H]21.Cl [Example 3, (1R,2S,4R,5R,6R)-2-[[(2S)-2-Amino-4-methylsulfanyl-butanoyl]amino]-4-(4H-1,2,4-triazol-3-ylsulfanyl)bicyclo[3.1.0]hexane-2,6-dicarboxylic acid hydrochloride] | ED50 (Sprague-Dawley rats [1]): 5.46 mg/kg; IC50 (hPepT1; 0.0625 to 25 mM, PepT1 transfected HeLa cells, read-out: hPepT1 [3H]Gly-Sar uptake inhibition IC50): 5.36 mM
35 | 44 | Cl.NCC(=O)N[C@@]1(C(=O)O)C[C@@H](Sc2nnc[nH]2)[C@H]2[C@H](C(=O)O)[C@H]21 [Example 5, (1R,2S,4R,5R,6R)-2-[(2-Aminoacetyl)amino]-4-(4H-1,2,4-triazol-3-ylsulfanyl)bicyclo[3.1.0]hexane-2,6-dicarboxylic acid hydrochloride] | 
